Source: patent publication US8568805B2, “Cognitive function” (Mars, Inc., priority 2002, dated 2013)

How the values were obtained:
[1] = tested on: WB-F344 rat liver epithelial cells; assay: Gap junctional communication assay (Lucifer Yellow dye transfer); assay type: cell-based; conditions: for stimulation of GJIC, fold of control: 24 h of exposure
Description: WB-F344 rat liver epithelial cells (kindly provided by Dr. Trosko, East Lansing, Mich.) were grown in Dulbecco's modification of Eagle's Medium (DMEM) supplemented with 10% fetal calf serum (FCS), 2 mM L-glutamine and penicillin/streptomycin in 35 mm plastic dishes. Cells were incubated at 37° C. in a humidified atmosphere containing 5% CO2. The confluent cells were incubated with DMEM (without FCS) for 24 h to decrease the basal level of cell-cell communication. (−)-Epicatechin, genistein (Sigma) or TPA were dissolved in DMSO and added to the medium; controls received DMSO only. The final concentration of DMSO in the medium was 0.2%. The epicatechin dimer was prepared as described in Adamson et al. (“HPLC Method for the Quantification of Procyanidins in Cocoa and Chocolate Samples and Correlation to Total Antioxidant Capacity” J. Ag. Food Chem., Vol. 7:10, 4184-4188), the relevant portion of which is hereby incorporated herein by reference.
Cells were treated with (−)-epicatechin (4 to 40 μM) and genistein (40 μM) for 24 and 72 h and GJIC was determined. […] GJIC was measured by microinjection of the fluorescent dye Lucifer Yellow CH (10% in 0.33 M LiCl) into selected cells by means of a micromanipulator and a microinjector system (Eppendorf). One min after injection, the number of fluorescent cells around a single cell which was loaded with the dye were counted. Ten individual cells were injected per dish and means of the number of fluorescent neighboring cells were calculated. Images were taken with a Zeiss axiovert fluorescent microscope coupled to a CCD camera (ORCA II, Hamamatsu).

connexin43 = assay: Immunofluorescence analysis of the subcellular distribution of connexin43; assay type: cell-based, rat; conditions: 90 min
Description: For immunohistochemistry, WB-F344 cells were grown in complete medium with FCS on coverslips in 35 mm plastic dishes until they reached 90% confluence. The cells were incubated for 90 min with 1, 5, or 10 nM TPA, 40 μM (−)-epicatechin or 40 μM genistein or a combination of 40 μM (−)-epicatechin and (1, 5, 10 nM) TPA or 40 μM genistein and (1, 5, 10 nM) TPA; DMSO (0.2%) was used as a control. After treatment, cells were washed with PBS and fixed with methanol for 10 min at −20° C. After further washing with PBS, non-specific binding sites were blocked with 3% normal goat serum (NGS) in PBS containing 0.3% (v/v) Triton-X-100 for 45 min at room temperature. Cells were incubated with a polyclonal anti-Cx 43 antibody (Zymed); diluted 1:1500 in PBS with 1% (v/v) NGS overnight at 4° C. Cells were washed with PBS, and incubated with an Alexa 546-coupled goat anti-rabbit Ig G (H+L) secondary antibody (Molecular Probes; diluted to 1:800 in PBS) for 45 min at 37° C. After washing and embedding, images were taken with a Zeiss axiovert fluorescent microscope coupled to a CCD camera (ORCA II, Hamamatsu).

[2] = tested on: cultured human umbilical vein endothelial cells; conditions: cited from earlier work
[3] = Rattus norvegicus, WB-F344, 40 μM, 72 h, read-out: GJIC % of Control

SMILES: Oc1cc(O)c2c(c1)O[C@H](c1ccc(O)c(O)c1)[C@H](O)C2 [(−)-Epicatechin]
- communication, fold above solvent control ([1]; 4 μM (lowest concentration)): 1.6 fold
- Number of communicating cells ([1]; 4 μM, 72 h): 18.1 ± 2.2 cells
- Number of communicating cells ([1]; 10 μM, 72 h): 20.1 ± 6.8 cells
- GJIC (% control) ([1]; 40 μM plus TPA 0.1 nM, 90 min): 95 ± 14 % control
- GJIC (% control) ([1]; 40 μM plus TPA 1 nM, 90 min): 95 ± 19 % control
- GJIC (% control) ([1]; 40 μM plus TPA 5 nM, 90 min): 61 ± 15 % control
- GJIC (% control) ([1]; 40 μM plus TPA 10 nM, 90 min): 50 ± 16 % control
- stimulation of GJIC, fold of control ([1]; 40 μM): 1.5 fold
- Number of communicating cells ([1]; 40 μM, 72 h): 24.2 ± 3.1 cells
- increase of GJIC, fold above controls ([1]; 40 μM, 72 h incubation): 2.1 fold
- activity at 4 µM ([1]; Rattus norvegicus, WB-F344, 4 μM, 72 h, read-out: GJIC % of Control): 156 ± 18%
- activity at 10 µM ([1]; Rattus norvegicus, WB-F344, 10 μM, 72 h, read-out: GJIC % of Control): 173 ± 56%
- activity at 40 µM [1, 3]: 209 ± 26%

SMILES: O=c1c(-c2ccc(O)cc2)coc2cc(O)cc(O)c12 [Genistein, genistein]
- counteraction of complete loss of GJIC by TPA ([1]; 40 μM coincubated with TPA 5 and 10 nM, 90 min): partially counteracted
- GJIC (% control) ([1]; 40 μM plus TPA 1 nM, 90 min): 90 ± 23 % control
- GJIC (% control) ([1]; 40 μM plus TPA 5 nM, 90 min): 83 ± 18 % control
- GJIC (% control) ([1]; 40 μM plus TPA 10 nM, 90 min): 72 ± 17 % control
- GJIC when applied together with TPA ([1]; 40 μM with 1 nM TPA, 90 min): restored GJIC to basal levels
- stimulation of GJIC, fold of control ([1]; 40 μM): 2.1 fold
- Number of communicating cells ([1]; 40 μM, 72 h): 35.4 ± 2.4 cells
- increase of GJIC, fold above controls ([1]; 40 μM, 72 h incubation): 2.9 fold
- activity at 40 µM [1, 3]: 293 ± 20%
- TPA effect on Cx43 distribution (connexin43; 40 μM plus TPA 10 nM): attenuated
- levels that affect GJIC in cell culture [2]: above 10 μM

SMILES: CCCCCCCCCCCCCC(=O)O[C@@H]1[C@@H](C)[C@@]2(O)[C@@H](C=C(CO)C[C@]3(O)C(=O)C(C)=C[C@@H]23)[C@H]2C(C)(C)[C@]12OC(C)=O [TPA]
- effect on GJIC ([1]; 0.1 nM TPA, 90 min): No effect
- GJIC diminished by ([1]; 1 nM TPA, 90 min): about 40%
- GJIC (% control) ([1]; TPA 0.1 nM alone, 90 min): 94 ± 14 % control
- GJIC (% control) ([1]; TPA 1 nM alone, 90 min): 55 ± 19 % control
- GJIC (% control) ([1]; TPA 5 nM alone, 90 min): 0 % control
- GJIC (% control) ([1]; TPA 10 nM alone, 90 min): 0 % control
- intercellular communication ([1]; TPA alone 5 and 10 nM, 90 min): completely disrupted
- effect on GJIC ([1]; TPA, 72 h incubation): no effect
- signal of membrane-associated Cx43 (connexin43; TPA 10 nM): decreased dramatically
